The target of one experiment is ER (Homo sapiens (Human), UniProt P03372). Nature of the experiment: In-cell western blot analysis of ER for "B" compounds. The following applies: 16 hours, read-out: ICW DC50. The experiment is classed as cell-based. The procedure:
R^T 2h, gentle shaking. Negative control: cells plus secondary antibodies (no primary antibodies); e, wash x 4 with PBS+0.05-0.1% Tween 20, gentel shaking; f, anti-rabbit-680 and anti-mouse-800 (both 1:1000 in LiCor block+0.05% Tween20, R^T 1h, gentle shaking, no light. LI-COR: 0.2% to reduce background; g, wash×4 with PBS+0.05% Tween 20, gental shaking; h, add 100 μL or 25 μL of PBS to each well and read on CLX plate reader. The relative ER percentage in treated cells were obtained by comparing the values of treated wells to those in untreated and DMSO-treated wells as 100%.

Experiment [1] in a line: Cell growth assay (WST-8) for "B" compounds. The experiment is classed as cell-based. The following applies: T47D, read-out: Cell growth Inhibition in T47D cell line IC50. The procedure, abridged: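 Cells seeded at 1500/well overnight, then exposed to compounds for 4 days. 10% WST-8 added for 2.5 h at 37 °C and absorbance read at 450 nm. Growth given as absorbance relative to vehicle control, from three repeats.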
A general note: Tetrazolium assays rely on reduction of a dye to a coloured formazan, in cell work by metabolically active cells.

The structures appear in SMILES notation. Where two headings read alike, the source gives them in different places.

ER, sequence (P03372 whole entry): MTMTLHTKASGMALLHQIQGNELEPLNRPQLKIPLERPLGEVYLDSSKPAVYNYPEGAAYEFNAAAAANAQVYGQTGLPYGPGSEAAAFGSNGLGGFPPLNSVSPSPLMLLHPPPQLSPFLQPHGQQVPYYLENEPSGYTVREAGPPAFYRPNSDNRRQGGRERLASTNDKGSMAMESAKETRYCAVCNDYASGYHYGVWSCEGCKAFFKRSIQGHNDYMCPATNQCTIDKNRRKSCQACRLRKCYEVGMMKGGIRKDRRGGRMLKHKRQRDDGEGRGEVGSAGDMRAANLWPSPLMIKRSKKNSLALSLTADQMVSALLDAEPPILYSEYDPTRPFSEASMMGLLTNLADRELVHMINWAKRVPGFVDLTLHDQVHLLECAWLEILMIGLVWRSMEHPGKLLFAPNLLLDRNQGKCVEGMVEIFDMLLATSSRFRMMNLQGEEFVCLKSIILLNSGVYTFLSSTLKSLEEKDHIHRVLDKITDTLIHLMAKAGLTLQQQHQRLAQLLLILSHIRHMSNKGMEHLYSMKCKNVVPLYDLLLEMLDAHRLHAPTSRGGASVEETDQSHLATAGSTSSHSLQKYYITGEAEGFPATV

For orientation: IC50 means the concentration that gives 50% inhibition. `O=C1CCC(N2Cc3cc4c(cc3C2=O)OC[C@@H]2CN(C(=O)CN3CC5(C3)CN(c3ccc([C@@H]6c7ccc(O)cc7CC[C@@H]6c6ccccc6)cc3)C5)CCN42)C(=O)N1` (stereo partly drawn) [Compound B205, 3-((S)-3-(2-(6-(4-((1R,2S)-6-hydroxy-2-phenyl-1,2,3,4-tctrahydronaphthalen-1-yl)phenyl)-2,6-diazaspiro[3.3]heptan-2-yl)acetyl)-8-oxo-1,2,3,4,4a,5,8,10-octahydro-9H-pyrazino[1′,2′:4,5][1,4]oxazino[2,3-f]isoindol-9-yl)piperidine-2,6-dione]: on ER, the DC50 is under 10 nM. In addition, the IC50 in experiment [1] (T47D cell line) lay in the range of 1 to 10 nM.

In the case of `O=C1CC[C@H](N2Cc3cc4c(cc3C2=O)OC[C@H](CN2CCC3(CC2)CCN(c2ccc([C@@H]5c6ccc(O)cc6CC[C@@H]5c5ccccc5)cc2)CC3)O4)C(=O)N1` [Compound B391, 3-((S)-2-((9-(4-((1R,2S)-6-hydroxy-2-phenyl-1,2,3,4-tetrahydronaphthalen-1-yl)phenyl)-3,9-diazaspiro[5.5]undecan-3-yl)methyl)-6-oxo-2,3,6,8-tetrahydro-7H-[1,4]dioxino[2,3-f]isoindol-7-yl)piperidine-2,6-dione], the DC50 at ER was over 100 nM. For the same compound, the IC50 in experiment [1] (T47D cell line) was in the range of 1 to 10 nM.

Take `O=C1CCC(N2Cc3c(ccc4c3OCC43CCN(CC4CCC5(CCN(c6ccc([C@@H]7c8ccc(O)cc8CC[C@@H]7c7ccccc7)cc6)CC5)C4)CC3)C2=O)C(=O)N1` (stereo partly drawn) [Compound B364, 3-(1′-((8-(4-((1R,2S)-6-hydroxy-2-phenyl-1,2,3,4-tetrahydronaphthalen-1-yl)phenyl)-8-azaspiro[4.5]decan-2-yl)methyl)-6-oxo-6,8-dihydro-2H,7H-spiro[furo[2,3-e]isoindole-3,4′-piperidin]-7-yl)piperidine-2,6-dione]: the DC50 at ER is over 100 nM. Moreover, in experiment [1], the IC50 is 1 to 10 nM.

Take `O=C1CC[C@H](N2Cc3c(ccc4c3OC[C@H]3CN(CC(=O)OC5CCN(c6ccc([C@@H]7c8ccc(O)cc8CC[C@@H]7c7ccccc7)cc6)CC5)CCN43)C2=O)C(=O)N1` [Compound B341]: the DC50 on ER is under 10 nM. Besides, in experiment [1] (T47D cell line), the IC50 is under 1 nM.

For the compound `O=C1CCC(N2Cc3c(ccc4c3OC[C@H]3CN(C(=O)CN5CC(Nc6ccc([C@@H]7c8ccc(O)cc8CC[C@@H]7c7ccccc7)cc6)C5)CCN43)C2=O)C(=O)N1` (stereo partly drawn) [Compound B250, 3-((R)-7-(2-(3-((4-((1R,2S)-6-hydroxy-2-phenyl-1,2,3,4-tetrahydronaphthalen-1-yl)phenyl)amino)azetidin-1-yl)acetyl)-1-oxo-1,3,5,5a,6,7,8,9-octahydro-2H-pyrazino[1′,2′:4,5][1,4]oxazino[2,3-e]isoindol-2-yl)piperidine-2,6-dione], the DC50 on ER was 10 to 100 nM. Further, the IC50 in experiment [1] (T47D cell line) is under 1 nM.

As for `CN(C(=O)c1ccc2c(c1)OC[C@H]1CN(CC3CC4(CCN(c5ccc([C@@H]6c7ccc(O)cc7CC[C@@H]6c6ccccc6)cc5)CC4)C3)CCN21)C1CCC(=O)NC1=O` (stereo partly drawn) [Compound B326, (4aR)-N-(2,6-dioxopiperidin-3-yl)-3-((7-(4-((1R,2S)-6-hydroxy-2-phenyl-1,2,3,4-tetrahydronaphthalen-1-yl)phenyl)-7-azaspiro[3.5]nonan-2-yl)methyl)-N-methyl-1,2,3,4,4a,5-hexahydrobenzo[b]pyrazino[1,2-d][1,4]oxazine-8-carboxamide], the DC50 at ER was over 100 nM. Also, the IC50 in experiment [1] (T47D cell line) is 1 to 10 nM.

In the case of `O=C1CCC(N2Cc3c(ccc4c3OC[C@H]3CN(CC5COC6(CN(c7ccc([C@@H]8c9ccc(O)cc9CC[C@@H]8c8ccccc8)cc7)C6)OC5)CCN43)C2=O)C(=O)N1` (stereo partly drawn) [Compound B327, 3-((R)-7-((2-(4-((1R,2S)-6-hydroxy-2-phenyl-1,2,3,4-tetrahydronaphthalen-1-yl)phenyl)-5,9-dioxa-2-azaspiro[3.5]nonan-7-yl)methyl)-1-oxo-1,3,5,5a,6,7,8,9-octahydro-2H-pyrazino[1′,2′:4,5][1,4]oxazino[2,3-e]isoindol-2-yl)piperidine-2,6-dione], the DC50 at ER was 10 to 100 nM. For the same compound, the IC50 in experiment [1] (T47D cell line) was under 1 nM.

The record behind these values is patent US20260028354A1, “TETRAHYDRONAPHTHALENE DERIVATIVES AS ESTROGEN RECEPTOR DEGRADERS” (REGENT OF THE UNIVERSITY OF MICHIGAN, priority 2022, published 2026).
